Assay in all cases: growth of human tumour cells (NCI), 48 h
Test [1] concerns DMS-114.
Test [2] relates to DMS-273.
Test [3] has as its system HOP-18.
Test [4] has as its system XF498.
Test [5] has as its system LXFL 529.
The test system of test [6] is SNB-78.
Test [7] has as its system DLD-1.
For test [8], the system named is KM-20L2.
Test [9] deals with RXF 631.

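A five-concentration, 48-hour dose response in 96-well plates underlies each endpoint, interpolated linearly between surrounding concentrations. The concentration for 50% growth inhibition is given as GI50.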 Calls of active or inactive are those of the source. Rule as the data show it: active = GI50 up to about 1.1 µM and inactive = higher. Where only a bound is given, the exact number is not on record here.

Take `COc1cc(/C=C/c2ccc(/C=C/c3cc(OC)c(OC)c(OC)c3)cc2)cc(OC)c1OC`: the GI50 in [1] was 22.4 µM (inactive); in [2], 14.6 µM (inactive); in test [3] it was 32.1 µM (inactive); in [4], 17 µM (inactive); in test [5] it was 11.9 µM (inactive); in [6] it was 26.1 µM (inactive). Also, the GI50 was 42.3 µM (inactive) in test [7] and 20.8 µM (inactive) in test [8].

With `CC(O)CCC(=O)c1ccoc1` (centres undefined), the GI50 in test [1] is 2610 µM (inactive); in test [2], 5450 µM (inactive); in test [3], 5150 µM (inactive); in test [5] it was > 1000 µM (inactive); in test [6], 5500 µM (inactive); in [7], 7960 µM (inactive). In test [8], the GI50 was > 9160 µM (inactive).

Take `CC(C)CCC[C@@H](C)C1CCC2[C@@H]3CC=C4C[C@@H](OC(=O)CCC(=O)NCC[N+](C)(C)CCCS(=O)(=O)[O-])CC[C@]4(C)C3CC[C@@]21C` (some centres undefined): the GI50 in test [1] is 20.6 µM (inactive); in test [2], 14.7 µM (inactive); in [3], 30.5 µM (inactive); in [5] it was 27.9 µM (inactive); in test [6], 24.9 µM (inactive); in [7], 21.7 µM (inactive). Moreover, the GI50 in [8] was 81.3 µM (inactive).

With `COc1ccc(/C(=N\NC(=S)NN)C(c2ccc(OC)cc2)C2C(=O)Oc3ccccc32)cc1` (centres undefined), the GI50 in [1] was 14.8 µM (inactive); in [2] it was > 10 µM (inactive); in test [3] it was 7.18 µM (inactive); in [4], > 10 µM (inactive); in [5], 72.4 µM (inactive); in test [6], > 10 µM (inactive). For the same molecule, the GI50 in test [7] and in test [8] was > 10 µM (inactive) in each case.

In the case of `Cc1c(C(=O)CSc2nc3ccccc3c(=O)n2-c2ccccc2)c(=O)n(-c2ccccc2)n1C`, the GI50 is > 100 µM (inactive) in [1]; 68.2 µM (inactive) in test [2]; 43.2 µM (inactive) in test [4]; 45.5 µM (inactive) in test [6]; > 100 µM (inactive) in test [7]; > 100 µM (inactive) in test [8].

Turning to `NNC(=O)CNC(=O)c1ccc(Cl)cc1Cl`, the GI50 in test [1] is > 100 µM (inactive); in test [2], > 100 µM (inactive); in test [3] it was > 100 µM (inactive); in [4], 91.6 µM (inactive); in [5], > 100 µM (inactive); in [7] it was > 100 µM (inactive). Moreover, in test [8], the GI50 is > 100 µM (inactive).

For the molecule `CC(=O)OC1CC2Oc3ccc(C)cc3C(C)(O2)C1=O` (centres undefined), the GI50 was > 100 µM (inactive) in test [1]; > 100 µM (inactive) in test [2]; > 100 µM (inactive) in [3]; 76 µM (inactive) in [4]; > 100 µM (inactive) in test [7].

As to `CC(=O)OCCOCNC(=S)N/N=C(\C)c1cnccn1`, the GI50 was 16.8 µM (inactive) in test [1]; 24.5 µM (inactive) in [2]; 25.4 µM (inactive) in test [3]; > 100 µM (inactive) in [4]; 22.9 µM (inactive) in test [5]; > 100 µM (inactive) in test [6]. The figures for the GI50 in test [7] and in [8] were 34.3 µM (inactive) and 13.2 µM (inactive), respectively.

For `CC(C)(Br)C(Br)CC/C(=C/CBr)CBr.CC(C)(Br)C(Br)CC/C(=C\CBr)CBr` (centres undefined), the GI50 in test [2] is 1.65 µM (inactive); in [3] it was 18 µM (inactive); in test [5], 3.3 µM (inactive); in test [6], 4.46 µM (inactive); in test [7], 3.39 µM (inactive).

Consider `COc1cccc(/C(Cl)=C(\C=O)c2cccc(OC)c2)c1`, for which the GI50 in [1] was 3.12 µM (inactive); in test [2], 8.17 µM (inactive); in test [3], 16.4 µM (inactive); in test [4] it was 13.8 µM (inactive); in test [5] it was 5.65 µM (inactive); in test [6], 4.24 µM (inactive). Also, the figures for the GI50 in test [7] and in test [8] were 8.43 µM (inactive) and 20.9 µM (inactive), respectively.

As for `CCC1=C(C)/C(=C/c2[nH]c(C(Br)Br)c(CC)c2C)N=C1C(Br)Br`, the GI50 in test [1] is 19 µM (inactive); in test [3] it was 84.9 µM (inactive); in test [5], 31.9 µM (inactive); in test [6], 33.4 µM (inactive); in test [7], 25.6 µM (inactive); in test [8] it was 41 µM (inactive).

Take `COC1(OC)CCC2C1C1CCC(OC)(OC)C21` (centres undefined): the GI50 in test [1], in [2], in test [3], in [4], in test [9] and in test [5] was > 50 µM (inactive) each time. Also, the GI50 in test [6], in test [7] and in test [8] was > 50 µM (inactive) each time.

As to `Cc1nsc2cc(Cl)n(C)c(=O)c12`, the GI50 in test [1], in test [2], in test [4], in test [9], in test [5] and in test [6] was > 100 µM (inactive) in each case. Moreover, the GI50 in test [7] and in [8] was > 100 µM (inactive) in each case.

`NC(=O)C(N)=O`: the GI50 in test [1], in [2], in [3], in test [4], in test [5] and in test [6] was > 100 µM (inactive) each time. Besides, the GI50 in [7] and in [8] was > 100 µM (inactive) in each case.

As for `COC1=CC(=O)C2C(C1=O)[C@@H]1c3ccccc3C[C@H]21` (some centres undefined), the GI50 in test [2], in [4], in test [9], in test [6] and in [7] was > 100 µM (inactive) in each case.

As to `CN(C)C(=S)/N=c1\ssc(=S)n1Cc1cccnc1`, the GI50 in test [1] is 0.783 µM (active); in test [2], 1.09 µM (active); in test [3], > 100 µM (inactive); in [4], 3.15 µM (inactive); in [9], 4.39 µM (inactive); in test [5] it was 6.15 µM (inactive). Further, the GI50 in [6] is > 100 µM (inactive); in test [7], 3.95 µM (inactive); in test [8], 2.06 µM (inactive).

For `CCc1nnc(S)n1/N=C/c1ccc(-c2ccc([N+](=O)[O-])cc2)o1`, the GI50 in [2], in [4], in [5], in test [6], in [7] and in [8] was > 100 µM (inactive) throughout.

In the case of `COC12CCC(C(C(=O)c3ccccc3)=C1C(=O)c1ccccc1)C(O)C2` (centres undefined), the GI50 in test [1], in test [2], in test [4], in [9], in test [5] and in [6] was > 100 µM (inactive) throughout. For the same molecule, the GI50 in test [7] was > 100 µM (inactive).

With `CC(=O)OCC1OC(n2ccc(=O)[nH]c2=O)C(OC(C)=O)C(OC(C)=O)C1OC(C)=O` (centres undefined), the GI50 in test [1], in test [2], in test [3], in test [4], in test [5] and in test [7] was > 100 µM (inactive) each time. The GI50 in [8] is > 100 µM (inactive).

With `O=C(OC1CC(n2cc(F)c(=O)[nH]c2=O)OC1CSC(=O)c1ccccc1)c1ccccc1` (centres undefined), the GI50 in test [1] is 37.3 µM (inactive); in [3], 33.3 µM (inactive); in [9], 15.1 µM (inactive); in test [5], 90.8 µM (inactive); in test [6] it was 32.1 µM (inactive); in test [7] it was 33.8 µM (inactive). For the same molecule, the GI50 in test [8] was 18.7 µM (inactive).

Consider `CCCCN(CCCC)C(=O)C(=O)CC(=O)c1ccc(Br)cc1`, for which the GI50 in test [1], in test [2], in test [3], in test [4], in test [5] and in [6] was > 100 µM (inactive) throughout. Further, the GI50 in [7] and in [8] was > 100 µM (inactive) in each case.

Regarding `c1ccc2c(C3NCCc4nc[nH]c43)cccc2c1` (centres undefined), the GI50 in test [1], in test [2], in test [3], in [5], in test [6] and in [7] was > 100 µM (inactive) in each case. In addition, the GI50 in test [8] was > 100 µM (inactive).

For the molecule `CCOC(=O)C1S/C(=N\c2cccc(Cl)c2C)N=C1C` (centres undefined), the GI50 in test [1] is 30.4 µM (inactive); in test [3] it was 28.7 µM (inactive); in test [4] it was 19.7 µM (inactive); in [5] it was > 10 µM (inactive); in [6] it was 33 µM (inactive); in [7], > 10 µM (inactive). Moreover, the GI50 in test [8] was 17.3 µM (inactive).

As for `Cn1cnc([N+](=O)[O-])c1Sc1nc(N)nc2c1ncn2C1OC(CO)C(O)C1O` (centres undefined), the GI50 in test [1] was 10.7 µM (inactive); in test [2], 4.17 µM (inactive); in test [3] it was 44.7 µM (inactive); in test [4] it was 6.87 µM (inactive); in [5] it was 45.8 µM (inactive); in test [6], 7.26 µM (inactive). For the same molecule, the GI50 in [7] was 7.67 µM (inactive); in test [8], 3.06 µM (inactive).

Turning to `C[N+](C)(C)CCC(=O)CC[N+](C)(C)C`, the GI50 in test [1] is 20.8 µM (inactive); in [2] it was 25.6 µM (inactive); in [3] it was 17.1 µM (inactive); in [4] it was 21.2 µM (inactive); in [5] it was 16.1 µM (inactive); in test [6] it was 22.3 µM (inactive). For the same molecule, the GI50 in [7] was 16.2 µM (inactive); in test [8], 25.5 µM (inactive).

Values taken from ChEMBL document CHEMBL1201862, “PubChem BioAssay data set” (2004).
